Target: T1, Cystic fibrosis transmembrane conductance regulator [1-507,509-1480] (Human, UniProt P13569, DEL508-508)
T1 construct: 1-507,509-1480
Test: Chamber Assay of CFTR-mediated short-circuit currents
Method: ssing chamber experiments were performed using human bronchial epithelial (HBE) cells derived from CF subjects heterozygous for F508del and a minimal function CFTR mutation (F508del/MF-HBE) and cultured as previously described (Neuberger T, Burton B, Clark H, Van Goor F Methods Mol Biol 2011:741:39-54). After four days the apical media was removed, and the cells were grown at an air liquid interface for >14 days prior to use. […] To isolate the CFTR-mediated short-circuit (ISC) current, F508del/MF-HBE grown on Costar Snapwell cell culture inserts were mounted in an Ussing chamber and the transepithelial ISC was measured under voltage-clamp recording conditions (Vhold= 0 mV) at 37 °C. The basolateral solution contained (in mM) 145 NaCl, 0.83 K2HPO4, 3.3 KH2PO4, 1.2 MgCl2, 1.2 CaCl2, 10 Glucose, 10 HEPES (pH adjusted to 7.4 with NaOH) and the apical solution contained (in mM) 145 NaGluconate, 1.2 MgCl2, 1.2 CaCl2, 10 glucose, 10 HEPES (pH adjusted to 7.4 with NaOH) and 30 µM amiloride to block the epithelial sodium channel. Forskolin (20 µM) was added to the apical surface to activate CFTR, followed by apical addition of a CFTR inhibitor cocktail consisting of BPO, GlyH-101 and CFTR inhibitor 172 (each at 20 µM final assay concentration) to specifically isolate CFTR currents. The CFTR-mediated ISC (µA/cm2) for each condition was determined from the peak forskolin response to the steady-state current following inhibition.

T1 sequence (P13569 as listed by the source): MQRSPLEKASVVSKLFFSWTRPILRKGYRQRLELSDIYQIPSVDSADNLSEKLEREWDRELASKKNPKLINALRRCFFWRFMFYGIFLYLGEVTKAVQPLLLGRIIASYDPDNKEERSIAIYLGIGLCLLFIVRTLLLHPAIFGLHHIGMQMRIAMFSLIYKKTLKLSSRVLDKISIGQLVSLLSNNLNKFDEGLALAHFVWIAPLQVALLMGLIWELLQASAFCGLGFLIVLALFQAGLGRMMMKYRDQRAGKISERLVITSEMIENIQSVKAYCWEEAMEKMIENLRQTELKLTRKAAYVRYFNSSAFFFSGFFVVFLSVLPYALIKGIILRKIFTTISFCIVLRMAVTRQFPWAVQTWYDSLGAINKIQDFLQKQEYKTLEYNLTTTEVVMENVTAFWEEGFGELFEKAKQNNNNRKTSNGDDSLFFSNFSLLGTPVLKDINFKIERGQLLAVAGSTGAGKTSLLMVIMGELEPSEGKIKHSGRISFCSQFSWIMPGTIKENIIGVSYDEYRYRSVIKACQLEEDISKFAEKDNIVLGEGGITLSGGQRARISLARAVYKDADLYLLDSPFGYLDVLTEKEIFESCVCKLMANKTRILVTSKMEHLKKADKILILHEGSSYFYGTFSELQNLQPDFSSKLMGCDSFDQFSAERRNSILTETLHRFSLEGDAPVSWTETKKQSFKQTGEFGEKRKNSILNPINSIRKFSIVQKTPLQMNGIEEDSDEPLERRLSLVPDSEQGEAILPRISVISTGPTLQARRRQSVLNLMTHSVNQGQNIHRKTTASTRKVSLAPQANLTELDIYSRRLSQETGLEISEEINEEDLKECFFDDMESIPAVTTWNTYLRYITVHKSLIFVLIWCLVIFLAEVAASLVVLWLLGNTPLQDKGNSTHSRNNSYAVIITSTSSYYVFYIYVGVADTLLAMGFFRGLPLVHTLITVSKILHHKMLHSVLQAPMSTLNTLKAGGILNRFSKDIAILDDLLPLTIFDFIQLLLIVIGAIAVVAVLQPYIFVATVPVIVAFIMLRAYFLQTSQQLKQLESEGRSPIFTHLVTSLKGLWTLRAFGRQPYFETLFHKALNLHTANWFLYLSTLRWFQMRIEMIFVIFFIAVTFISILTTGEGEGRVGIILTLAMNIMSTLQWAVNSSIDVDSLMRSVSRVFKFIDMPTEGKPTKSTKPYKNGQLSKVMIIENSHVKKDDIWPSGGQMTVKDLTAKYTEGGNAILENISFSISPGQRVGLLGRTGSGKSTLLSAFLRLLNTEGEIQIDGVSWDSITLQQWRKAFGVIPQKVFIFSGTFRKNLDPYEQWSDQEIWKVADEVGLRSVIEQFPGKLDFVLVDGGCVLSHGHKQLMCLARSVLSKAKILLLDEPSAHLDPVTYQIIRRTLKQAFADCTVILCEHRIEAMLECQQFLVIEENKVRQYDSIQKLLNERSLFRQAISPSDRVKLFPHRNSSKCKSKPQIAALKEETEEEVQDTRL

Compound	EC50 [nM]
Nc1cc(C(F)(F)F)c2nc1-c1nnc(o1)/C(=N\O)CCCCC[C@@H]1CCCN21 [WO2022109573, Compound 31]	< 500
Nc1cc(C(F)(F)F)c2nc1-c1nnc(o1)C(=O)CCCCC[C@@H]1CCCN21 [WO2022109573, Compound 36]	< 500
CCNc1cc(C(F)(F)F)c2nc1-c1nnc(o1)[C@@](O)(C(F)(F)F)CCCCC[C@@H]1CCCN21 [WO2022109573, Compound 14]	< 500
Nc1cc(C(F)(F)F)c2nc1-c1nnc(o1)C(O)(C(F)(F)F)CCCCCCN2CCO (stereo unspecified) [WO2022109573, Compound 41]	< 500
CC1(C)CC2CCCCCC(O)(C(F)(F)F)C3=NN=C(O3)c3nc(c(C(F)(F)F)cc3N)N2C1 (stereo unspecified) [WO2022109573, Compound 29]	< 500
CC1(O)CCCCC[C@@H]2CCCN2c2nc(c(N)cc2C(F)(F)F)C2=NN=C1O2 (stereo partly specified) [WO2022109573, Compound 45]	< 500
Nc1cc(C(F)(F)F)c2nc1-c1nnc(o1)[C@](O)(C(F)(F)F)CCCCC1CCN2C1 (stereo partly specified) [WO2022109573, Compound 9]	< 500
CCOC(=O)CN1CCCCCCC(O)(C(F)(F)F)C2=NN=C(O2)c2nc1c(C(F)(F)F)cc2N (stereo unspecified) [WO2022109573, Compound 46]	< 500
CN1CCCCCCC(O)(C(F)(F)F)C2=NN=C(O2)c2nc1c(C(F)(F)F)cc2N (stereo unspecified) [WO2022109573, Compound 19]	< 500
Nc1cc(C(F)(F)F)c2nc1-c1nnc(o1)C(O)CCCCC[C@@H]1CCCN21 (stereo partly specified) [WO2022109573, Compound 21]	< 500
Nc1cc(C(F)(F)F)c2nc1-c1nnc(o1)[C@@](O)(C(F)(F)F)CCCCC1CCN2C1 (stereo partly specified) [WO2022109573, Compound 8]	< 500
Nc1cc(C(F)(F)F)c2nc1-c1nnc(o1)C(O)(C(F)(F)F)CCCC(=O)N1CCN2CC1 (stereo unspecified) [WO2022109573, Compound 37]	< 500

Next, values leading:

EC50 [nM]	Compound
< 500	CNc1cc(C(F)(F)F)c2nc1-c1nnc(o1)[C@@](O)(C(F)(F)F)CCCCC[C@@H]1CCCN21 [WO2022109573, Compound 13]
< 500	Nc1cc(C(F)(F)F)c2nc1-c1nnc(o1)[C@](O)(C(F)(F)F)CCCCCC[C@H]1CCCN21 [WO2022109573, Compound 25]
< 500	Nc1cc(C(F)(F)F)c2nc1-c1nnc(o1)[C@@](O)(C(F)(F)F)CCCC[C@H]1CCCN21 [WO2022109573, Compound 18]
< 500	Nc1cc(C(F)(F)F)c2nc1-c1nnc(o1)[C@](O)(C(F)(F)F)CCCCC[C@@H]1CCCN21 [WO2022109573, Compound 4]
< 500	Nc1cc(C(F)(F)F)c2nc1-c1nnc(o1)[C@@](O)(C(F)(F)F)CCCCCC[C@@H]1CCCN21 [WO2022109573, Compound 23]
< 500	Nc1cc(C(F)(F)F)c2nc1-c1nnc(o1)[C@@](O)(C(F)(F)F)CCCCCC[C@H]1CCCN21 [WO2022109573, Compound 24]
< 500	Nc1cc(C(F)(F)F)c2nc1-c1nnc(o1)[C@@](O)(C(F)(F)F)CCCC[C@@H]1CCCN21 [WO2022109573, Compound 17]
< 500	Nc1cc(C(F)(F)F)c2nc1-c1nnc(o1)C(O)(C(F)(F)F)CCCC[C@@H]1CCCN21 (stereo partly specified) [WO2022109573, Compound 32]
< 500	Nc1cc(C(F)(F)F)c2nc1-c1nnc(o1)[C@](O)(C(F)(F)F)CCCCC[C@H]1CCCN21 [WO2022109573, Compound 7]
